Measurements published in patent US6825200B1, “Substituted dipeptides having nos inhibiting activity” (Fujisawa Pharmaceutical Co., Ltd., priority 1999, dated 2004).

Experiments:
[1] = system: production of nitric oxide in murine macrophage cell line RAW264.7; experiment: Assay for inhibitory activity on the production of nitric oxide (Griess reagent, LPS/INF γ-activated RAW264.7 cells); assay type: cell-based; conditions: Mus musculus; test compound 10^−6 M; RAW264.7 cells activated with LPS (1 μg/ml) and INF γ (3 u/ml) for 18-24 hours; NO2^− by Griess reagent
Procedure: Test 1: Assay for Inhibitory Activity on the Production of Nitric Oxide The murine macrophage cell line RAW264.7 (American Type Culture Collection, No. TIB71) was used in this study. RAW264.7 cells were grown on […] plastic culture flasks at 37° C., 5% in Dulbecco's modified Eagle's medium (DMEM) supplemented with L-glutamine, penicillin, streptomycin and 10% heat-inactivated fetal bovine serum. They were removed from culture flasks by rubber cell scraper and were centrifuged and resuspended in DMEM without phenol red. They were plated in 96-well microtiter plates (10^5 cells per well) and allowed to adhere over 2 hours. The test samples were added and the cells were preincubated for 1 hour. Thereafter the cells were activated with both of lipopolysaccharide (LPS) (1 μg/ml) and interferon γ (INF γ) (3 u/ml) for 18-24 hours. An equal volume of Griess reagent (1% sulfanilamide/0.1% N-naphthylethylenediamine dihydrochloride/2.5% H3PO4) was added and the cells were incubated at room temperature for 10 minutes. The absorbance was read at 570 nm using microplate reader and NO2^- was measured using NaNO2 as a standard.

melting point [°C] | Structure (SMILES) | inhibition at 1 µM [1] [%]
– | O=C(/C=C/c1ccc(Cl)cc1)N[C@@H](Cc1ccccn1)C(=O)NCC(=O)N1CCN(CCC(F)(F)F)CC1 [Compound (d), (2E)-3-(4-Chlorophenyl)-N-[(1S)-2-oxo-2-[[2-oxo-2-[4-(3,3,3-trifluoropropyl)-1-piperazinyl]ethyl]amino]-1-(2-pyridylmethyl)ethyl]-2-propenamide] | 100
95 to 100 | COC[C@@H]1CN(c2ccccc2)CCN1C(=O)CNC(=O)[C@H](Cc1ccccn1)NC(=O)c1cc2cc(Cl)ccc2o1 [Example 25, 5-Chloro-N-[(1S)-2-[[2-[(2S)-2-(methoxymethyl)-4-phenyl-1-piperazinyl]-2-oxoethyl]amino]-2-oxo-1-(2-pyridylmethyl)ethyl]-1-benzofuran-2-carboxamide] | –
– | O=C(/C=C/c1ccc(Cl)cc1)N[C@@H](Cc1ccccn1)C(=O)NCC(=O)N1CCN(c2ccc(C(F)(F)F)cc2)CC1 [Compound (e), (2E)-3-(4-Chlorophenyl)-N-[(1S)-2-oxo-2-[[2-oxo-2-[4-(4-trifluoromethylphenyl)-1-piperazinyl]ethyl]amino]-1-(2-pyridylmethyl)ethyl]-2-propenamide] | 99
75 to 85 | O=C(N[C@@H](Cc1ccccn1)C(=O)NCC(=O)N1CCN(c2cccs2)CC1)c1cc2cc(Cl)ccc2o1 [Example 18, 5-Chloro-N-[(1S)-2-oxo-2-[[2-oxo-2-[4-(2-thienyl)-1-piperazinyl]ethyl]amino]-1-(2-pyridylmethyl)ethyl]-1-benzofuran-2-carboxamide] | –
– | O=C(N[C@@H](Cc1ccccn1)C(=O)NCC(=O)N1CCN(c2ccc(Cl)cc2)CC1)c1cc2cc(Cl)ccc2o1 [Compound (a), 5-Chloro-N-[(1S)-2-[[2-[4-(4-chlorophenyl)-1-piperazinyl]-2-oxoethyl]amino]-2-oxo-1-(2-pyridylmethyl)ethyl]-1-benzofuran-2-carboxamide] | 100
– | C[C@H]1CN(c2ccccc2)CCN1C(=O)CNC(=O)[C@H](Cc1ccccn1)NC(=O)/C=C/c1ccc(Cl)cc1 [Compound (b), (2E)-3-(4-Chlorophenyl)-N-[(1S)-2-[[2-((2S)-2-methyl-4-phenyl-1-piperazinyl)-2-oxoethyl]amino]-2-oxo-1-(2-pyridylmethyl)ethyl]-2-propenamide] | 100
152 to 155 | C[C@H](NC(=O)[C@H](Cc1ccccn1)NC(=O)c1cc2cc(Cl)ccc2o1)C(=O)N1CCN(c2ccc(Cl)cc2)CC1 [Example 22, 5-Chloro-N-[(1S)-2-[[(1S)-2-[4-(4-chlorophenyl)-1-piperazinyl]-1-methyl-2-oxoethyl]amino]-2-oxo-1-(2-pyridyl-methyl)ethyl]-1-benzofuran-2-carboxamide] | –
– | Cc1ccc(N2C[C@@H](C)N(C(=O)CNC(=O)[C@H](Cc3ccccn3)NC(=O)/C=C/c3ccc(Cl)cc3)[C@@H](C)C2)cc1 [Compound (c), (2E)-3-(4-Chlorophenyl)-N-[(1S)-2-[[2-[(2R,6S)-2,6-dimethyl-4-(4-methylphenyl)-1-piperazinyl]-2-oxoethyl]amino]-2-oxo-1-(2-pyridylmethyl)ethyl]-2-propenamide] | 100
179 to 181 | C[C@H](NC(=O)[C@H](Cc1ccccn1)NC(=O)/C=C/c1ccc(Cl)cc1)C(=O)N1CCN(c2ccc(Cl)cc2)CC1 [Example 23, (2E)-3-(4-Chlorophenyl)-N-[(1S)-2-[[(1S)-2-[4-(4-chlorophenyl)-1-piperazinyl]-1-methyl-2-oxoethyl]amino]-2-oxo-1-(2-pyridylmethyl)ethyl]-2-propenamide] | –
– | COc1ccc(N2CCN(C(=O)CNC(=O)[C@H](Cc3ccccn3)NC(=O)c3cc4cc(Cl)ccc4o3)CC2)cc1 [Compound (f), 5-Chloro-N-[(1S)-2-[[2-[4-(4-methoxyphenyl)-1-piperazinyl]-2-oxoethyl]amino]-2-oxo-1-(2-pyridylmethyl)ethyl]-1-benzofuran-2-carboxamide] | 100
115 to 120 | O=C(N[C@@H](Cc1ccccn1)C(=O)NCC(=O)N1CCN(c2ccccc2)C[C@H]1CO)c1cc2cc(Cl)ccc2o1 [Example 26, 5-Chloro-N-[(1S)-2-[[2-[(2S)-2-(hydroxymethyl)-4-phenyl-1-piperazinyl]-2-oxoethyl]amino]-2-oxo-1-(2-pyridylmethyl)ethyl]-1-benzofuran-2-carboxamide] | –
